This is an account of results in ChEMBL document CHEMBL1157539, “Thousands of chemical starting points for antimalarial lead identification” (Nature, 2010).

This test has as its system Plasmodium falciparum. The test is described as follows: GSK_TCMDC: Inhibition of Plasmodium falciparum 3D7 in whole erythrocytes, using parasite LDH activity as an index of growth. The conditions noted are these: Plasmodium falciparum, 3D7. The class given is functional, organism-based.
`COc1cccc2c(N/N=C/c3ccc([N+](=O)[O-])cc3)ccnc12` showed an XC50 of 888 nM.

Turning to `CCN(CC)CCN(Cc1ccc(-c2ccc(C(F)(F)F)cc2)nc1)C(=O)Cn1cc(Cc2cnn(C)c2)c(=O)n2nc(-c3ccccc3)cc12`, the XC50 is 991 nM.

`CCN(CC)CCN(Cc1ccc(-c2ccc(C(F)(F)F)cc2)cc1)C(=O)Cn1c(CCc2cc(F)cc(F)c2F)nc(=O)c2ccccc21` came in with an XC50 of 756 nM.

Consider `CC(=O)Nc1ccc(Nc2c3ccccc3nc3ccccc23)cc1`, for which the XC50 was 1020 nM.

Consider `Oc1cc(NC[C@H]2CCC[C@@H]2NCc2cc(Br)cc(Br)c2)nc2ccccc12`, for which the XC50 worked out at 678 nM.

Compound `CCC(C)(C)n1c(C)cc2c3c(N)nc(N)nc3ccc21` displayed an XC50 of 3.2 nM.

Turning to `CN(CC(=O)N1CCN(S(=O)(=O)c2cccc(Cl)c2)CC1CN1CCCC1)c1ccc(Cl)c(Cl)c1` (stereo not given), the XC50 came to 1240 nM.

Take `CCOc1cc2c(cc1S(=O)(=O)c1ccc(COc3ccc(C(F)(F)F)cc3)cc1)CCN(C)CC2`: the XC50 was 1020 nM.

Regarding `Nc1nc(N)c2c(ccc3c2ccn3Cc2cccc(F)c2)n1`, the XC50 worked out at 3.2 nM.

Consider `COc1cc(C)c(C(O)CNC(C)CCc2ccccc2)cc1C` (stereo not given), for which the XC50 is 730 nM.

Consider `O=C(Nc1cccc(Cl)c1Cl)NC1CCN(Cc2cccc(O)c2)CC1`, for which the XC50 came to 799 nM.

In the case of `CS(=O)(=O)N1CC2(CCN(CCC(NC(=S)Nc3ccccc3)c3ccc(Cl)c(Cl)c3)CC2)c2ccccc21` (stereo not given), the XC50 is 826 nM.

Turning to `Cc1cc(C)c(CC(C)NCC(O)c2cccc(C(F)(F)F)c2)c(C)c1` (stereo not given), the XC50 turned out to be 568 nM.

As to `O=C(NCC1CC1)C1CCN(C(c2ccccc2)c2nc3ccccc3s2)CC1` (stereo not given), the XC50 came out at 1020 nM.

Consider `Cn1cnc(CCNC(=O)c2cccc(-c3cccc(-c4nc5cc(C(F)(F)F)ccc5[nH]4)c3)c2)c1`, for which the XC50 amounted to 700 nM.

The compound `COc1cccc(-c2[nH]c3ccccc3c2CN2CCC(c3c(C)cccc3C)CC2)c1` showed an XC50 of 1020 nM.

Compound `O=C(NCc1ccccc1F)c1ccc(N2CCC(NCc3cccc(-n4cccn4)c3)CC2)cc1` gave an XC50 of 1730 nM.

Turning to `CN1CCC(C(=O)Nc2ccc(-c3ccc(-c4nc5cc(C(F)(F)F)ccc5[nH]4)s3)cc2)CC1`, the XC50 came to 987 nM.

Regarding `Cc1cccc2nc(-c3ccc(-c4ccc(CN5CCCC(N)C5)cc4)cc3)[nH]c12` (stereo not given), the XC50 turned out to be 350 nM.

`Cc1nc(N)nc(N)c1CCCOc1ccccc1Cl`: the XC50 is 224 nM.

Regarding `CN1CCc2ccc(NC(=O)Nc3ccc(-c4ccccc4)cc3)cc2C1`, the XC50 amounted to 511 nM.

As for `CS(=O)(=O)c1ccc(CCNCc2ccc(-c3ccc(CNC4Cc5ccccc5C4)cc3)nc2)cc1`, the XC50 is 757 nM.

`COc1cc2nc(Nc3ccc(Oc4ccccc4)cc3)nc(Nc3ccc(Oc4ccccc4)cc3)c2cc1OC`: the XC50 was 934 nM.

Take `Cc1cc(NCC2CCN(CC3CCCCC3)C2)nc(Nc2ccc(Cl)cc2)n1` (stereo not given): the XC50 was 739 nM.

`CCOc1ccc(C(C)NC(=O)c2ccc(OC)c(Br)c2)cc1OCC` (stereo not given) had an XC50 of 706 nM.

Compound `O=C(Nc1ccc(F)cc1)NC1CCN(c2ccnc3cc(Cl)ccc23)CC1` had an XC50 of 408 nM.

With `Cc1ccccc1C1CCN(C2CCC(NC(=O)c3ccc(-c4cccc(C(F)(F)F)c4)o3)CC2)CC1` (stereo not given), the XC50 worked out at 346 nM.

The compound `O=C(NC1CC1)c1ccc(N2CCC(Cc3ccccc3)CC2)nc1` displayed an XC50 of 761 nM.

With `CS(=O)(=O)CCCNCc1ccc(-c2cc3c(Nc4ccc(OCc5ccccc5)cc4)ncnc3cn2)o1`, the XC50 stood at 650 nM.

Regarding `O=C(c1cc(C(=O)NC2CCCCC2)c(=O)n(C2CCCCC2)c1)c1cc(F)ccc1O`, the XC50 was determined as 627 nM.

As to `COc1ccc2nc(-c3ccccc3)cc(NCCN(C)C)c2c1`, the XC50 is 731 nM.

On to `COc1ccc(CN2CCC(N3CC(c4ccccc4)(c4ccccc4)OCC3=O)C2)c(O)c1` (stereo not given), for which the XC50 amounted to 931 nM.

As to `COCc1cc(C)nc2sc(C(=O)Nc3cc(C(C)(C)C)ccc3O)c(N)c12`, the XC50 is 714 nM.

With `O=C(/C=C/c1ccc2ccccc2c1)NCC1(c2ccc(-c3ccccc3)cc2)CCOCC1`, the XC50 was found to be 1520 nM.

Compound `CCc1c(CCNCCCCCCNCCc2ccc(Br)cc2)ccc(O)c1O` returned an XC50 of 903 nM.

As for `Cc1ccc2[nH]cc(/C=C/C(=O)NC3CCC(CCN4CCc5ccc(C#N)cc5CC4)CC3)c2c1` (stereo not given), the XC50 was found to be 916 nM.

As to `c1csc(-c2nc(N3CCCCC3)ncc2-c2ccsc2)n1`, the XC50 turned out to be 136 nM.

Turning to `CCOc1cc(Cc2cnc(N)nc2N)cc(Br)c1OC`, the XC50 turned out to be 1440 nM.

The compound `Oc1ccc(CN2Cc3ccccc3OC3(CCN(Cc4c[nH]c5cnccc45)CC3)C2)cc1` yielded an XC50 of 1170 nM.

`CN1CCN(CC(=O)Nc2cccc(-c3cccc(-c4nc5cc(C(F)(F)F)ccc5[nH]4)c3)c2)CC1`: the XC50 turned out to be 372 nM.

On to `Cn1nccc1C(=O)NCCNCc1ccc(-c2ccc(-c3nc4ccccc4[nH]3)s2)cc1`, for which the XC50 came out at 560 nM.

As to `CCn1cc(C(=O)O)c(=O)c2cc(F)c(N3CCN(S(=O)(=O)c4ccc(N)cc4)CC3)cc21`, the XC50 stood at 922 nM.

`CCCCN1Cc2c(n(CC(=O)Nc3ccccc3)c3cc(-c4ccccc4)nn3c2=O)C1=O` displayed an XC50 of 811 nM.

Regarding `O=C(N[C@H]1CCN(Cc2ccc(OCCN3CCNCC3)c(Br)c2)C1)c1ccc(Cl)c(Cl)c1`, the XC50 worked out at 484 nM.

On to `COc1cc2nc(N3CCC(CNC(=O)c4ccc(-c5ccccc5)cc4)CC3)nc(N)c2cc1OC`, for which the XC50 is 574 nM.

In turn, `CCCc1cc(NCc2ccncc2)nc(Nc2ccc(F)cc2)n1` displayed an XC50 of 1120 nM.

In turn, `O=S(=O)(NCCN1CCCC1)c1ccc(-c2ccc(CN3Cc4ccccc4C3)cc2)s1` displayed an XC50 of 930 nM.

Regarding `COc1ccc(NC(=O)N2CCc3ccc(OCCN(C(C)C)C(C)C)cc32)cc1C(F)(F)F`, the XC50 was 969 nM.

For `COC(=O)c1cccc(CNCc2ccc(-c3ccc(-c4nc5cccc(C)c5[nH]4)s3)cc2)c1`, the XC50 came out at 402 nM.

In turn, `c1ccc2c(CNc3nc(NCC4CCCCC4)nc4[nH]cnc34)cccc2c1` gave an XC50 of 888 nM.

As to `O=C(Nc1ccc(-c2cccc(-c3nc4ccccc4[nH]3)c2)cc1)Nc1ccc(Cl)c(Cl)c1`, the XC50 came out at 459 nM.

As for `CCC(C)(C)NC(=O)C(c1cccc(OC)c1)N(C(=O)CNC(=O)c1cccs1)c1ccc2c(c1)OCCO2` (stereo not given), the XC50 amounted to 828 nM.

As to `Cc1c(CNCCCNc2nc3ccncc3[nH]2)sc(Br)c1Br`, the XC50 was determined as 1040 nM.

For the compound `CCOc1ncccc1CN1CCC(N2CCc3cc(NC(=O)c4cc(C)on4)ccc32)C1` (stereo not given), the XC50 came out at 312 nM.

On to `CCOC(=O)c1cccc(NC(=O)Nc2cccc(-c3ncc(OCCCN)c4c3nc(-c3nonc3N)n4CC)c2)c1`, for which the XC50 came to 894 nM.

Turning to `CC(C)(C)c1cc(C(=O)N2CCN(c3ccc(C(F)(F)F)cn3)CC2)n(Cc2ccc(F)cc2)n1`, the XC50 turned out to be 978 nM.

`Cc1cccc(C)c1CNc1nc(N2CCOCC2)cc2c(C)c(C)[nH]c12`: the XC50 worked out at 1240 nM.

Take `N#Cc1ccc2[nH]cc(CN3CCC4(CC3)CN(CCNCc3ccccc3)C(=O)O4)c2c1`: the XC50 amounted to 1160 nM.

The compound `O=C(CCn1cncn1)N1CCCC(c2[nH]c3ccccc3c2-c2ccncc2)C1` (stereo not given) registered an XC50 of 800 nM.

Compound `CC(C)NCc1ccc(-c2ccc(CN3CCCC(c4ccccc4)C3)cc2)c(C(=O)NC2Cc3ccccc3C2)c1` (stereo not given) displayed an XC50 of 991 nM.

`CS(=O)(=O)Cc1ccc(Nc2nccc(-c3c(-c4cccc(NC(=O)C5CCCCC5)c4)nn4ncccc34)n2)cc1` showed an XC50 of 201 nM.

`COc1cccc2cc(C(=O)N[C@@H](CC(C)C)C(=O)N[C@H](/C=N/N(C)C(=O)OC(C)(C)C)CC(=O)OC(C)(C)C)oc12` gave an XC50 of 654 nM.

As for `COc1cc2nc(NCCN3CCOCC3)n3nc(-c4ccccc4)nc3c2cc1OC`, the XC50 was 215 nM.

In turn, `COc1cc(Nc2ncnc3cc(OC)c(OC)cc23)cc([N+](=O)[O-])c1` registered an XC50 of 810 nM.

`Cn1cccc1C(=O)C(=O)Nc1cccc(-c2ccc(-c3nc4cc(C(F)(F)F)ccc4[nH]3)cc2)c1` showed an XC50 of 785 nM.

`COc1ccc(-c2cccc(NC(=O)c3cccs3)c2)cc1CN1CCCN(C)CC1` gave an XC50 of 698 nM.

Regarding `O=S(=O)(c1ccc(OCc2ccc(Cl)cc2)cc1)c1cc2c(cc1OCc1ccccc1)CCN(CC1CC1)CC2`, the XC50 was 1110 nM.

The compound `C=CCc1c(C(=O)NCC23CC4CC(CC(C4)C2)C3)nc2ccccc2c1O` showed an XC50 of 1030 nM.

For the compound `N=c1c2c(n(Cc3cccc(Cl)c3)c3c1CCC3)CCCC2`, the XC50 amounted to 194 nM.

In turn, `CN1CCCN(Cc2cccc(-c3cccc(NC(=O)c4cccc(Cl)c4)c3)c2)CC1` registered an XC50 of 889 nM.

`COC(=O)c1ccc2c(c1)nc(Nc1cccc(F)c1)n2CC(O)c1ccccn1` (stereo not given) came in with an XC50 of 728 nM.

In turn, `O=C(/C=C/c1ccc(Cl)c(Cl)c1)Nc1cccc(CN2CCC(c3c[nH]c4ccccc34)CC2)c1` showed an XC50 of 670 nM.

As for `O=C(Nc1cccc(C(F)(F)F)c1)c1ccc(S(=O)(=O)NCC2CCCN2CC2CCCCC2)cc1` (stereo not given), the XC50 stood at 751 nM.

For `O=C(Nc1cccc(-c2nn3ncccc3c2-c2ccnc(Nc3cccc(-c4cnco4)c3)n2)c1)c1c(F)cccc1F`, the XC50 worked out at 166 nM.

With `Cc1cccc2nc(-c3ccc(-c4ccc(NC(=O)CN5CCN(C)CC5)cc4)cc3)[nH]c12`, the XC50 was 785 nM.

Compound `Cc1cnc(NC(=O)c2cn(-c3ccccc3)nc2-c2cccs2)s1` yielded an XC50 of 945 nM.

For the compound `Cc1c(S(=O)(=O)Nc2ccc3ccn(CCN(C)C)c3c2)sc2ccc(Cl)cc12`, the XC50 stood at 921 nM.

`CCCNCc1ccc(-c2ccc(CN(CCOC)C(=O)CCC(=O)c3ccc(OC)c(F)c3)cc2)nc1` had an XC50 of 683 nM.

In the case of `O=S(=O)(NC1CCN(c2ccnc3cc(Cl)ccc23)C1)c1cccs1` (stereo not given), the XC50 was found to be 697 nM.

On to `CCNc1cc(C)nc(Nc2ccc(NC(=O)Cc3ccc(OC)cc3)cc2)n1`, for which the XC50 was 1380 nM.

The compound `O=C(Cc1c[nH]cn1)Nc1ccc(-c2ccc(-c3nc4cc(C(F)(F)F)ccc4[nH]3)s2)cc1` came in with an XC50 of 657 nM.

For the compound `Clc1ccc(/N=C(/NCCCCCCCN/C(=N\c2ccc(Cl)cc2)Nc2ccc(Cl)cc2)Nc2ccc(Cl)cc2)cc1`, the XC50 amounted to 321 nM.

With `COc1ccc2ncc(C#N)c(CCN3C4CCC3CC(NCc3ccc5c(n3)NC(=O)CS5)C4)c2c1` (stereo not given), the XC50 was determined as 810 nM.

Compound `COc1ccc(-c2cnc(N)c(-c3ccc(C(N)=O)cc3)c2)cc1OC` yielded an XC50 of 897 nM.

`COc1ccc(CNC2CCN(C)CC2)cc1-c1ccc(S(=O)(=O)NCC2CCCO2)s1` (stereo not given) came in with an XC50 of 800 nM.
